The record followed here is ChEMBL document CHEMBL1909590, “Design, synthesis and docking studies of new quinoline-3-carbohydrazide derivatives as antitubercular agents” (2011).

Format in all cases: functional
Test [1] deals with Mycobacterium tuberculosis. Kind of test: Antimycobacterial activity against Mycobacterium tuberculosis H37Rv ATCC 27294 using compound level ranging from 1 to 100 ug/mL after 7 days by resazurin reduction test. The conditions noted are these: H37Rv ATCC 27294, 168 h. For orientation: The colour change of resazurin is a common sign of viable cells or microbes.
In test [2] the test system is Mycolicibacterium smegmatis. Kind of test: Antimycobacterial activity against Mycobacterium smegmatis MC2 ATCC 19420 using compound level ranging from 0.3125 to 5 ug/mL after 7 days by resazurin reduction test. The conditions noted are these: MC2 ATCC 19420, 168 h.
Another test deals with Staphylococcus aureus. Kind of test: Antibacterial activity against Staphylococcus aureus ATCC 25923 after 18 to 25 hrs by serial plate dilution method.
In the next test the test system is Streptococcus pyogenes. Kind of test: Antibacterial activity against Streptococcus pyogenes clinical isolate after 18 to 25 hrs by serial plate dilution method.
For test [3], the system named is Mycobacterium tuberculosis. Kind of test: Antimycobacterial activity against Mycobacterium tuberculosis H37Rv ATCC 27294 using compound level ranging from 0.3125 to 5 ug/mL after 7 days by resazurin reduction test. The conditions noted are these: H37Rv ATCC 27294, 168 h.
A further test deals with Escherichia coli. Kind of test: Antibacterial activity against Escherichia coli ATCC 25922 after 18 to 25 hrs by serial plate dilution method.
In test [4] the test system is Mycobacterium tuberculosis. Kind of test: Growth inhibition of Mycobacterium tuberculosis H37Rv ATCC 27294 using compound level ranging from 1 to 100 ug/mL after 7 days by resazurin reduction test.
Test [5] concerns Mycolicibacterium fortuitum. Kind of test: Antimycobacterial activity against Mycobacterium fortuitum ATCC 19542 using compound level ranging from 1 to 100 ug/mL after 7 days by resazurin reduction test. The conditions noted are these: ATCC 19542, 168 h.
The subject of another test is Pseudomonas aeruginosa. Kind of test: Antibacterial activity against Pseudomonas aeruginosa ATCC 27853 after 18 to 25 hrs by serial plate dilution method.
The next test has as its system Klebsiella pneumoniae. Kind of test: Antibacterial activity against Klebsiella pneumoniae clinical isolates after 18 to 25 hrs by serial plate dilution method.
The subject of test [6] is Mycolicibacterium smegmatis. Kind of test: Antimycobacterial activity against Mycobacterium smegmatis MC2 ATCC 19420 using compound level ranging from 1 to 100 ug/mL after 7 days by resazurin reduction test. The conditions noted are these: MC2 ATCC 19420, 168 h.
The subject of test [7] is Mycolicibacterium fortuitum. Kind of test: Antimycobacterial activity against Mycobacterium fortuitum ATCC 19542 using compound level ranging from 0.3125 to 5 ug/mL after 7 days by resazurin reduction test. The note with it: ATCC 19542, 168 h.

As usually defined, the MIC is the lowest concentration found to suppress growth.

The structures appear in SMILES notation. Converted amounts (≈) assume the structure as drawn.

Take `COc1ccc(/C=N/NC(=O)c2cnc3c(C(F)(F)F)cccc3c2O)cc1`: the MIC worked out at 1 µg/mL (≈ 2.57 µM) in test [1]; 10 µg/mL (≈ 25.7 µM) in test [2]; 0.8 µg/mL (≈ 2.05 µM) in the test with Staphylococcus aureus; 0.4 µg/mL (≈ 1.03 µM) against Streptococcus pyogenes; 1.25 µg/mL (≈ 3.21 µM) in test [3]; 0.4 µg/mL (≈ 1.03 µM) in the test on Escherichia coli. In addition, the MIC in [5] amounted to 10 µg/mL (≈ 25.7 µM); in the test on Pseudomonas aeruginosa, 0.8 µg/mL (≈ 2.05 µM); against Klebsiella pneumoniae, 0.8 µg/mL (≈ 2.05 µM); in test [6] it was 10 µg/mL (≈ 25.7 µM); in [7] it was 10 µg/mL (≈ 25.7 µM). Also, the “growth inhibition (GI)” value in test [4] was 90%.

For the compound `Cc1cccc2c(/C=N/NC(=O)c3cnc4c(C(F)(F)F)cccc4c3O)c[nH]c12`, the MIC was 1 µg/mL (≈ 2.43 µM) in test [1]; 1.25 µg/mL (≈ 3.03 µM) in [2]; 0.8 µg/mL (≈ 1.94 µM) in the test with Staphylococcus aureus; 0.4 µg/mL (≈ 0.97 µM) against Streptococcus pyogenes; 0.625 µg/mL (≈ 1.52 µM) in test [3]; 0.1 µg/mL (≈ 0.243 µM) with Escherichia coli. Besides, the MIC worked out at 10 µg/mL (≈ 24.3 µM) in test [5]; 0.4 µg/mL (≈ 0.97 µM) against Pseudomonas aeruginosa; 0.1 µg/mL (≈ 0.243 µM) in the test with Klebsiella pneumoniae; 1 µg/mL (≈ 2.43 µM) in test [6]; 10 µg/mL (≈ 24.3 µM) in test [7]. Also, the “growth inhibition (GI)” value in test [4] was found to be 95%.

Regarding `Cc1ccc(NC(=O)NNC(=O)c2cnc3c(C(F)(F)F)cccc3c2O)cc1`, the MIC in test [1] was determined as 1 µg/mL (≈ 2.47 µM); in test [2], 10 µg/mL (≈ 24.7 µM); against Staphylococcus aureus, 0.8 µg/mL (≈ 1.98 µM); in the test with Streptococcus pyogenes it was 0.4 µg/mL (≈ 0.989 µM); in [3] it was 1.25 µg/mL (≈ 3.09 µM); against Escherichia coli, 0.2 µg/mL (≈ 0.495 µM). Moreover, the MIC in test [5] was found to be 10 µg/mL (≈ 24.7 µM); with Pseudomonas aeruginosa, 0.8 µg/mL (≈ 1.98 µM); in the test with Klebsiella pneumoniae, 0.1 µg/mL (≈ 0.247 µM); in test [6], 10 µg/mL (≈ 24.7 µM); in test [7] it was 10 µg/mL (≈ 24.7 µM). The “growth inhibition (GI)” value in [4] turned out to be 90%.

Consider `Cc1[nH]cnc1/C=N/NC(=O)c1cnc2c(C(F)(F)F)cccc2c1O`, for which the MIC worked out at 1 µg/mL (≈ 2.75 µM) in test [1]; 1.25 µg/mL (≈ 3.44 µM) in [2]; 0.8 µg/mL (≈ 2.2 µM) in the test with Staphylococcus aureus; 1.6 µg/mL (≈ 4.4 µM) with Streptococcus pyogenes; 1.25 µg/mL (≈ 3.44 µM) in test [3]; 0.4 µg/mL (≈ 1.1 µM) with Escherichia coli. Also, the MIC worked out at 10 µg/mL (≈ 27.5 µM) in [5]; 0.4 µg/mL (≈ 1.1 µM) with Pseudomonas aeruginosa; 0.1 µg/mL (≈ 0.275 µM) against Klebsiella pneumoniae; 1 µg/mL (≈ 2.75 µM) in test [6]; 12.5 µg/mL (≈ 34.4 µM) in test [7]. Also, the “growth inhibition (GI)” value in test [4] is recorded as 90%.

With `COc1ccc2[nH]cc(/C=N/NC(=O)c3cnc4c(C(F)(F)F)cccc4c3O)c2c1`, the MIC in test [1] was 1 µg/mL (≈ 2.33 µM); in test [2], 10 µg/mL (≈ 23.3 µM); against Staphylococcus aureus, 0.8 µg/mL (≈ 1.87 µM); with Streptococcus pyogenes, 0.4 µg/mL (≈ 0.934 µM); in test [3], 0.625 µg/mL (≈ 1.46 µM); against Escherichia coli, 0.1 µg/mL (≈ 0.233 µM). For the same compound, the MIC in test [5] was 10 µg/mL (≈ 23.3 µM); against Pseudomonas aeruginosa, 0.4 µg/mL (≈ 0.934 µM); against Klebsiella pneumoniae, 0.1 µg/mL (≈ 0.233 µM); in test [6], 10 µg/mL (≈ 23.3 µM); in test [7], 10 µg/mL (≈ 23.3 µM). The “growth inhibition (GI)” value in test [4] turned out to be 95%.
